Assay results: patent publication US20080003250A1, “NOVEL THERAPY FOR HERPESVIRUS INFECTION” (priority 2006, published 2008)

What was measured:
HSV-1 = details: cited from earlier work
[1] = system: HSV-1 KOS infected Vero cells; assay: Efficacy of implants at preventing cytopathic effect in cell culture; assay type: cell-based; details: 48 hours post-infection; 0.22 ug ACV or two implants per well
Method: A six-well culture plate was prepared with 4 mL of Dulbecco's modified Eagles' medium (DMEM) (Invitrogen) supplemented with 10% fetal bovine serum and 1% penicillin-streptomycin-Amphotericin B solution (Mediatech) per well. […] The plate was incubated for two days at 37° C. and 5% CO2. Vero cells (ATCC CCL-81) were then added to each well and allowed to grow for another 48 hours until almost confluent. HSV-1 KOS (9.0×10^3 pfu) (ATCC VR-1493) was added to one of each of the paired wells, and 24 and 48 hours later the cells were photographed with a Nikon D1 2.6 megapixel digital camera, set in black and white mode, attached to an Olympus CK-40 microscope. The resulting digital images were compiled for presentation with Adobe Photoshop.
All mock-infected Vero cells remained healthy 48 hours after infection (FIGS. 8A-8C).

[2] = molecular target: host eukaryotic DNA polymerase; details: cited from earlier work
[3] = cited from earlier work

**Q.** For `Nc1nc2c(ncn2COCCO)c(=O)[nH]1` [ACV, acyclovir], which “50% inhibitory dose against HSV-1” value (HSV-1) is on record?
**A.** about 0.03 ug/mL

**Q.** And the “cytopathic effect (CPE) in HSV-1-infected Vero cells” value [1]?
**A.** Moderate CPE (cell rounding)

**Q.** What about the “plaque formation in HSV-1-infected Vero cells” value [1] of the same molecule?
**A.** no plaque formation

**Q.** With `Nc1nc2c(ncn2COCCOP(=O)(O)OP(=O)(O)OP(=O)(O)O)c(=O)[nH]1` [ACV-triphosphate, ACV triphosphate] as the molecule, how does the Ki [2] read?
**A.** 960 ± 80 nM

**Q.** Which “bioavailability, of the oral dose consumed” value [3] does the source give for `CC(C)[C@H](N)C(=O)OCCOCn1cnc2c(=O)[nH]c(N)nc21` [valacyclovir] here?
**A.** about 50%
